Assay [1] deals with circulating platelets. Put plainly: Circulating platelet count in dogs on multiple oral daily dosing. Format: in vivo. The note with it: male beagle dogs, once daily oral gavage, 2 mg/kg days 2-7, 6 mg/kg days 8-15 (FIG. 5). The procedure:
(§1) The effect of Bcl-2 protein inhibitors on circulating platelets can be determined by administration of test compounds, preferably orally or intravenously, to an animal and analyzing a blood sample and determining the number of platelets by techniques well-known in the art. Preferably, blood samples are obtained from about 2 hours to about 48 hours after compound administration.
Male beagle dogs (n=3/group; 8-12 kg) were treated once daily with N-(4-(4-((2-(4-chlorophenyl)-5,5-dimethyl-1-cyclohex-1-en-1-yl)methyl)piperazin-1-yl)benzoyl)-4-(((1R)-3-(morpholin-4-yl)-1-((phenylsulfanyl)methyl)propyl)amino)-3-((trifluoromethyl)sulfonyl)benzenesulfonamide in 10:90 DMSO/PEG 400 (by volume) by oral gavage at a dose of 2 mg/kg on days 2-7 and at a dose of 6 mg/kg on days 8-15 of the study. Blood samples were collected at baseline and 6 hours post dosing on days 2-5, 8-12 and day 15 from the jugular vein, treated with EDTA and the whole blood analyzed for platelet counts on a Cell-Dyn 3700 (Abbott Laboratories). Percent starting platelet counts (PC) were calculated using the following equation. [1−(PCt=0−PCt=6)/PCt=0]×100%.

For the next assay, the system named is dog platelets. The experiment in a line: Viability of dog platelets. Format: cell-based.
A further assay relates to human platelets. Put plainly: Viability of human platelets. The format is cell-based.
The subject of the next assay is platelets. Put plainly: Activation of apoptotic processes in platelets. Format: cell-based, dog and human.
Another assay deals with isolated platelets. The experiment in a line: Aggregation of isolated platelets. Format: cell-based.
The subject of a further assay is Bcl-2. The experiment in a line: Binding to Bcl-2 protein. How it is done: Binding affinity of compounds to Bcl-2 protein is indicia of their inhibition of the activity of this protein. To determine the binding affinity of compounds to Bcl-2, representative examples were diluted in DMSO to concentrations between […] and added to each well of a 96-well microtiter plate. A mixture comprising 125 µL per well of assay buffer (20 mM phosphate buffer (pH 7.4), 1 mM EDTA, 50 mM NaCl, 0.05% PF-68), 10 nM of Bcl-2 protein (prepared according to the procedure described in PNAS 2001, 98, 3012-3017), 1 nM fluorescein-labeled BAX peptide (prepared in-house) and the DMSO solution of the representative example was shaken for 2 minutes and placed in a LJL Analyst (LJL Bio Systems, CA. Polarization was measured at room temperature using a continuous Fluorescein lamp (excitation 485 nm, emission 530 nm). Percentage of inhibition was determined by (1-((mP value of well-negative control)/range))×100%.

A further assay addresses T1, Bcl-XL (Homo sapiens, UniProt Q07817).
T1 construct: made in house
Put plainly: Binding to Bcl-XL protein. How it is done:
Binding affinity of compounds to Bcl-XL protein is indicia of their inhibition of the activity of this protein. To determine the binding affinity of compounds to Bcl-XL protein, representative examples were diluted in DMSO to concentrations between 100 μM and 1 μM and added to each well of a 96-well microtiter plate. A mixture comprising 125 μL per well of assay buffer (20 mM phosphate buffer (pH 7.4), 1 mM EDTA, 50 mM NaCl, 0.05% PF-68), 6 nM of Bcl-XL protein (prepared as described in Science 1997, 275, 983-986), 1 nM fluorescein-labeled BAD peptide (prepared in-house) and the DMSO solution of the compound was shaken for 2 minutes and placed in a LJL Analyst (LJL Bio Systems, CA). A negative control (DMSO, 15 nM BAD peptide, assay buffer) and a positive control (DMSO, 1 nM BAD peptide, 6 nM Bcl-XL, assay buffer) were used to determine the range of the assay. Polarization was measured at room temperature using a continuous Fluorescein lamp (excitation 485 nm, emission 530 nm). Percentage of inhibition was determined by (1-((mP value of well-negative control)/range))×100%.

The target in a further assay is T2, Bcl-w (Homo sapiens, UniProt Q92843).
T2 sequence (Q92843 1-193): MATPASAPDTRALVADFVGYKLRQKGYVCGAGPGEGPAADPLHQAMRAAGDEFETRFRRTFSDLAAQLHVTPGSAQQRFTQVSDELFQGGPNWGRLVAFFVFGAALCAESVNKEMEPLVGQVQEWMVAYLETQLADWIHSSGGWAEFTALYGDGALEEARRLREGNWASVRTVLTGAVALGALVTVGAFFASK
Put plainly: Binding to Bcl-w.

The test system of assay [2] is circulating platelets. Put plainly: Circulating platelet count in dogs after a single oral dose. The format is in vivo. The note with it: male beagle dogs, one 5 mg/kg oral dose (FIG. 1, FIG. 2). How it is done: as §1
Male beagle dogs (n=3/group; 8-12 kg) were treated with a single dose of 5 mg/kg N-(4-(4-((2-(4-chlorophenyl)-4,4-dimethylcyclohex-1-en-1-yl)methyl)piperazin-1-yl)benzoyl)-4-(((1R)-3-(morpholin-4-yl)-1-((phenylsulfanyl)methyl)propyl)amino)-3-((trifluoromethyl)sulfonyl)benzenesulfonamide in 10:30:60 ethanol/phosal 50 PG/PEG 400 (by weight) by oral gavage. Blood samples were collected at baseline and at the indicated time points from the jugular vein, treated with EDTA and the whole blood analyzed for platelet counts on a Cell-Dyn 3700 (Abbott Laboratories).
Male beagle dogs (n=3/group; 8-12 kg) were treated with a single dose of 5 mg/kg 3-((chloro(difluoro)methyl)sulfonyl)-N-(4-(4-((2-(4-chlorophenyl)-4,4-dimethylcyclohex-1-en-1-yl)methyl)piperazin-1-yl)benzoyl)-4-(((1R)-3-(morpholin-4-yl)-1-((phenylsulfanyl)methyl)propyl)amino)benzenesulfonamide in 10:90 DMSO/PEG 400 (by volume) by oral gavage. […]

T1 sequence (Q07817 whole entry): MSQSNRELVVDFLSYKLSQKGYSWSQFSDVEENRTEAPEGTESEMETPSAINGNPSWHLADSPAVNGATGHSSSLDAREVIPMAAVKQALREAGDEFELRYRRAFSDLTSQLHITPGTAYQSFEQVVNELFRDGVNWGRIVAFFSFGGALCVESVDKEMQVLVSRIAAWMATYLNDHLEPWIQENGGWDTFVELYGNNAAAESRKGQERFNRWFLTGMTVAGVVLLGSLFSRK

For the molecule `CC1(C)CCC(c2ccc(Cl)cc2)=C(CN2CCN(c3ccc(C(=O)NS(=O)(=O)c4ccc(N[C@H](CCN5CCOCC5)CSc5ccccc5)c(S(=O)(=O)C(F)(F)F)c4)cc3)CC2)C1` [EXAMPLE 2, N-(4-(4-((2-(4-chlorophenyl)-5,5-dimethyl-1-cyclohex-1-en-1-yl)methyl)piperazin-1-yl)benzoyl)-4-(((1R)-3-(morpholin-4-yl)-1-((phenylsulfanyl)methyl)propyl)amino)-3-((trifluoromethyl)sulfonyl)benzenesulfonamide], in the assay on circulating platelets [1], the “circulating platelet count, multiple oral dosing” value is “proportionate effect”. For the same molecule, in the assay on dog platelets, the viability of platelets entry was “reduced”. Further, the viability of platelets result in the assay with human platelets is on record as “reduced”. In the assay with platelets, the “PS (phosphotidyl serine) externalization” value was “activated”, the “caspase 3 activation” value is recorded as “activated” and the cytochrome c release entry is recorded as “activated”. In the assay on isolated platelets, the “aggregation of isolated platelets” value is on record as “did not induce”. The “binding to Bcl-2” value with Bcl-2 is listed as “capable of binding”. Besides, the “binding to Bcl-XL” value on Bcl-XL is given as “capable of binding”. Besides, the “binding to Bcl-w” value at Bcl-w is given as “capable of binding”.
Take `CC1(C)CCC(CN2CCN(c3ccc(C(=O)NS(=O)(=O)c4ccc(N[C@H](CCN5CCOCC5)CSc5ccccc5)c(S(=O)(=O)C(F)(F)F)c4)cc3)CC2)=C(c2ccc(Cl)cc2)C1` [EXAMPLE 6, N-(4-(4-((2-(4-chlorophenyl)-4,4-dimethylcyclohex-1-en-1-yl)methyl)piperazin-1-yl)benzoyl)-4-(((1R)-3-(morpholin-4-yl)-1-((phenylsulfanyl)methyl)propyl)amino)-3-((trifluoromethyl)sulfonyl)benzenesulfonamide]: the circulating platelet count entry in the assay on circulating platelets [2] is recorded as “rapid reduction in circulating platelet count”.
For `CN(C)CC[C@H](CSc1ccccc1)Nc1ccc(S(=O)(=O)NC(=O)c2ccc(N3CCN(Cc4ccccc4-c4ccc(Cl)cc4)CC3)cc2)cc1[N+](=O)[O-]` [EXAMPLE 7, N-(4-(4-((4′-chloro(1,1′-biphenyl)-2-yl)methyl)piperazin-1-yl)benzoyl)-4-(((1R)-3-(dimethylamino)-1-((phenylsulfanyl)methyl)propyl)amino)-3-nitrobenzenesulfonamide], the “binding to Bcl-2” value in the assay on Bcl-2 is “capable of binding”. Further, the “binding to Bcl-XL” value on Bcl-XL is “capable of binding”. Further, the “binding to Bcl-w” value on Bcl-w is on record as “capable of binding”.

(Values after US7842681B2, “Treatment of myeoproliferative diseases” (Abbott Laboratories, priority 2006, dated 2010).)
